Test results taken from patent US20120046308A1, “NOVEL ALPHA-PHENOXYBENZENEACETIC ACID DERIVATIVE AND PHARMACEUTICAL PREPARATION COMPRISING SAME” (KOWA COMPANY, LTD., priority 2009, published 2012).
Read-outs that look alike come from different tables or passages of the source.

Tests used:
[1] = molecular target: T1, angiotensin II type 1 receptor (Oryctolagus cuniculus, UniProt P34976); experiment: Angiotensin II antagonistic activity in isolated rabbit blood vessels (thoracic aorta ring contraction); details: angiotensin II (10 nM)-induced contraction
T1 construct: By using a specimen of isolated rabbit blood vessels; from tissue; host or cells: rabbit (New Zealand White) thoracic aorta ring
T1 sequence (P34976 1-359): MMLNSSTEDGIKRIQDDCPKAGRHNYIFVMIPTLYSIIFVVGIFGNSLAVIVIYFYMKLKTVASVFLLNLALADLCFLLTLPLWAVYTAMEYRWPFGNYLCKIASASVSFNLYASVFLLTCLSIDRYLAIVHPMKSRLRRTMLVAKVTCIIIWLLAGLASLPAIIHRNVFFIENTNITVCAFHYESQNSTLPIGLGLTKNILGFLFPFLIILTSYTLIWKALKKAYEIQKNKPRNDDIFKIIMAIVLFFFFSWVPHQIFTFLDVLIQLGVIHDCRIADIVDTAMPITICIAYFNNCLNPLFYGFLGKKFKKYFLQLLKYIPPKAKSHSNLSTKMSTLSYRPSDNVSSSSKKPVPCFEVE
Procedure: By using a specimen of isolated rabbit blood vessels, antagonistic activity of the compounds of the invention against angiotensin II type 1 receptor was estimated from a dose-response curve of angiotensin II-induced blood vessel contraction.
During the measurement, the inside temperature of the magnus bath was maintained at 37° C. and the bath was continuously ventilated with a sufficient amount of mixed gas (95% O2 and 5% CO2). The angiotensin II-induced contraction was converted into a relative value (%) that is based on the angiotensin II (10 nM)-induced contraction in the absence of the compounds of each example. From the concentration-response curve obtained therefrom, 50% inhibition concentration (IC50 value) was calculated by using SAS Preclinical Package Ver5.0 (trade name, manufactured by SAS institute Japan Co., Tokyo, Japan), which is a statistical analysis program.

human PPARγ2 [2] = molecular target: T2, human PPARγ2 (Homo sapiens, UniProt P37231); experiment: PPARγ activation activity, Gal4-PPARγ2 LBD luciferase transfection assay using COS7 cells; assay type: cell-based; details: for EC50: 16 hours, luciferase activity relative to rosiglitazone = 100%; for Emax: COS-7, 16 h, maximum activity strength relative to the maximum activity of rosiglitazone, read-out: % MAX vs Rosiglitazone
T2 construct: the amino acids 182 to 505 of human PPARγ2; expressed in transfected cells; host or cells: COS7 cells (African green monkey kidney)
T2 sequence (P37231 182-505): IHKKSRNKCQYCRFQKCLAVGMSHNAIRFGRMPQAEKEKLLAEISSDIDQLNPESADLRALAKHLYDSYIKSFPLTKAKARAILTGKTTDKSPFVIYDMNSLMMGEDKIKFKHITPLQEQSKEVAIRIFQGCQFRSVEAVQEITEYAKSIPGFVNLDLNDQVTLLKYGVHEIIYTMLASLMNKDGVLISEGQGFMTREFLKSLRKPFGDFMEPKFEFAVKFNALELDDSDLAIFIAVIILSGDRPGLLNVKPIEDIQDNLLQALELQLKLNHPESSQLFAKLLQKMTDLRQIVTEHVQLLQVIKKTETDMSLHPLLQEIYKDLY
Procedure: The agonistic activity of the compounds of the invention on PPARγ was measured based on the transfection assay using COS7 cells (DS Pharma Biomedical Co., Ltd., Osaka, Japan), which are the cell line derived from the kidney of the African green monkey. COS7 cells were cultured under 5% CO2 concentration, and DMEM medium containing 10% fetal bovine serum, glutamic acid, and antibiotics was used as a medium.
As an expression vector, a chimera in which DNA binding domain of Gal4, which is a yeast transcription factor, and ligand binding domain of human PPARγ2 are fused, i.e., a fused product between the amino acids 1 to 147 of Gal4 transcription factor and the amino acids 182 to 505 of human PPARγ2, was used. Furthermore, as a reporter vector, a firefly luciferase containing five copies of Gal4 recognition sequence in the promoter region was used. Plasmid transfection to the cells was performed according to a method which uses jetPEI (trade name, manufactured by Funakoshi Co., Ltd., Tokyo, Japan). Furthermore, β-galactosidase expression vector was employed as an internal standard.
After the transfection of the cells, the medium was replaced with a DMEM medium (containing 1% serum) added with the compound, and the cells were further cultured for 16 hours. After that, the luciferase activity and β-galactosidase activity in the cell lysis solution were measured.
For the present test, dimethyl sulfoxide (DMSO) was used for dissolution and dilution of the test compounds, and during the cell treatment, the DMSO concentration in DMEM medium (containing 1% serum) was adjusted to 0.1%. As a positive compound, rosiglitazone (trade name, manufactured by ALEXIS Corporation, Switzerland) was used. The luciferase activity (%) of the test compounds (1 to 30 μmol/L) was calculated when the luciferase activity of rosiglitazone (3 to 10 μmol/L) is 100% and the luciferase activity in the absence of the test compound is 0%. The 50% effective concentration of the test compound (EC50, 50% effect concentration) was calculated by using SAS Preclinical Package Ver5.0 (trade name, manufactured by SAS institute Japan Co., Tokyo, Japan), which is a statistical analysis program.

human PPARγ2 [3] = molecular target: T2, human PPARγ2; experiment: as above; assay type: cell-based; details: maximum activity relative to rosiglitazone

| SMILES | IC50 [1] | EC50 (human PPARγ2 [2]; COS7 cells, read-out: EC50) | Emax (human PPARγ2 [2]) | EC50 (human PPARγ2 [2]; EC50, COS7 cells) | maximum activity compared with that of termisartan (human PPARγ2 [3]) |
| --- | --- | --- | --- | --- | --- |
| CCCCc1nc(C)n(Cc2ccccc2)c(=O)c1Cc1cc(CCC)c(OC(C(=O)O)c2ccccc2)c(CCC)c1 (centres unmarked) [Example 28, 2-[4-{(1-benzyl-4-butyl-2-methyl-6-oxo-1,6-dihydropyrimidin-5-yl)methyl}-2,6-dipropylphenoxy]-2-phenylacetic acid] | 724 nM | 850 nM | 21.3% |  |  |
| CCCc1nc2c(C)cc(-c3nc4ccccc4n3C)cc2n1Cc1ccc(-c2ccccc2C(=O)O)cc1 [telmisartan, reference compound] | 25 nM |  | 30 to 50% | 1000 to 5000 nM |  |
| CCCCc1nc(C)n(-c2ccc(OCc3ccccc3)cc2)c(=O)c1Cc1cc(CCC)c(OC(C(=O)O)c2ccccc2)c(CCC)c1 (centres unmarked) [Example 12, 2-[4-[[1-{4-(benzyloxy)phenyl}-4-butyl-2-methyl-6-oxo-1,6-dihydropyrimidin-5-yl]methyl]-2,6-dipropylphenoxy]-2-phenyla cetic acid] |  | 440 nM | 57.5% |  | equal to or more than that of termisartan |
| CCCCc1nc(C)n(-c2ccccn2)c(=O)c1Cc1cc(CCC)c(OC(C(=O)O)c2ccc(Cl)cc2)c(CCC)c1 (centres unmarked) [Example 9] |  | 540 nM | 47% |  | equal to or more than that of termisartan |
| CCCCc1nc(C)n(CCOC)c(=O)c1Cc1cc(CCC)c(OC(C(=O)O)c2ccccc2)c(CCC)c1 (centres unmarked) [Example 33, 2-[4-[{4-butyl-1-(2-methoxyethyl)-2-methyl-6-oxo-1,6-dihydropyrimidin-5-yl}methyl]-2,6-dipropylphenoxy]-2-phenylacetic acid] | 250 nM | 2670 nM |  |  |  |
| CCCCc1nc(C)n(-c2ccc(OC(C)C)cc2)c(=O)c1Cc1cc(CCC)c(OC(C(=O)O)c2ccccc2)c(CCC)c1 (centres unmarked) [Example 14] |  | 600 nM | 63% |  | equal to or more than that of termisartan |
| CCCCc1nc(C)n(CC2CCCCC2)c(=O)c1Cc1cc(CCC)c(OC(C(=O)O)c2ccccc2)c(CCC)c1 (centres unmarked) [Example 30, 2-[4-[(4-butyl-1-(cyclohexylmethyl)-2-methyl-6-oxo-1,6-dihydropyrimidin-5-yl}methyl]-2,6-dipropylphenoxy]-2-phenylacet ic acid] | 836 nM | 280 nM | 28.5% |  |  |
| CCCCc1nc(C)n(-c2ccccn2)c(=O)c1Cc1cc(CCC)c(OC(c2nnn[nH]2)c2ccccc2Cl)c(CCC)c1 (centres unmarked) [Example 11, 6-butyl-5-[4-{(2-chlorophenyl)(1H-tetrazol-5-yl)methoxy}-3,5-dipropylbenzyl]-2-methyl-3-(pyridin-2-yl)pyrimidin-4(3H)-one] |  | 2630 nM |  |  |  |

More lines, main results first:

| IC50 [1] | EC50 (human PPARγ2 [2]; COS7 cells, read-out: EC50) | Emax (human PPARγ2 [2]) | SMILES | EC50 (human PPARγ2 [2]; EC50, COS7 cells) | maximum activity compared with that of termisartan (human PPARγ2 [3]) |
| --- | --- | --- | --- | --- | --- |
| 530 nM | 3070 nM | 32% | CCCCc1nc(C)n(-c2ccccn2)c(=O)c1Cc1cc(CCC)c(OC(C(=O)O)c2ccccc2)c(CCC)c1 (centres unmarked) [Example 1, 2-[4-[{4-butyl-2-methyl-6-oxo-1-(pyridin-2-yl)-1,6-dihydropyrimidin-5-yl}methyl]-2,6-dipropylphenoxy]-2-phenylacetic acid] |  |  |
| 67 nM |  |  | CCCCc1nc(C)n(-c2ncc(OCCCC(N)=O)cn2)c(=O)c1Cc1cc(CCC)c(OC(C(=O)O)c2ccccc2)c(CCC)c1 (centres unmarked) [Example 23] |  |  |
| 92 nM | 2710 nM | 47.2% | CCCCc1nc(C)n(-c2ncc(OC)cn2)c(=O)c1Cc1cc(CCC)c(OC(C(=O)O)c2ccccc2)c(CCC)c1 (centres unmarked) [Example 15] |  | equal to or more than that of termisartan |
| 76 nM |  |  | CCCCc1nc(C)n(-c2ncc(OCC[S+](C)[O-])cn2)c(=O)c1Cc1cc(CCC)c(OC(C(=O)O)c2ccccc2)c(CCC)c1 (centres unmarked) [Example 25] |  |  |
| 353 nM |  |  | CCCCc1nc(C)n(-c2ncc(OCCS(C)(=O)=O)cn2)c(=O)c1Cc1cc(CCC)c(OC(C(=O)O)c2ccccc2)c(CCC)c1 (centres unmarked) [Example 26, 2-[4-[[4-butyl-2-methyl-1-[5-{2-(methylsulfonyl)ethoxy}pyrimidin-2-yl]-6-oxo-1,6-dihydropyrimidin-5-yl]methyl]-2,6-dipropylphenoxy]-2-phenylacetic acid] |  |  |
| 58 nM | 1460 nM | 44.4% | CCCCc1nc(C)n(-c2ncc(OC)cn2)c(=O)c1Cc1cc(CCC)c(OC(C(=O)O)c2ccccc2)c(CCC)c1 (single isomer, unassigned; (-)) [Example 16, (−)-2-[4-[{4-butyl-1-(5-methoxypyrimidin-2-yl)-2-methyl-6-oxo-1,6-dihydropyrimidin-5-yl}methyl]-2,6-dipropylphenoxy]-2-phenylacetic acid] |  |  |
|  | 3710 nM |  | CCCCc1nc(C)n(-c2ncc(OC)cn2)c(=O)c1Cc1cc(CCC)c(OC(C(=O)O)c2ccccc2)c(CCC)c1 (single isomer, unassigned; (+)) [Example 17, (+)-2-[4-[{4-butyl-1-(5-methoxypyrimidin-2-yl)-2-methyl-6-oxo-1,6-dihydropyrimidin-5-yl}methyl]-2,6-dipropylphenoxy]-2-phenylacetic acid] |  |  |
| 115 nM | 2590 nM | 58.6% | CCCCc1nc(C)n(-c2ncc(OCC)cn2)c(=O)c1Cc1cc(CCC)c(OC(C(=O)O)c2ccccc2)c(CCC)c1 (centres unmarked) [Example 20] |  |  |
|  | 1400 nM | 49.1% | CCCCc1nc(C)n(-c2ncc(OC)cn2)c(=O)c1Cc1cc(CCC)c(OC(C(=O)O)c2ccc(Cl)cc2)c(CCC)c1 (centres unmarked) [Example 18, 2-[4-[{4-butyl-1-(5-methoxypyrimidin-2-yl)-2-methyl-6-oxo-1,6-dihydropyrimidin-5-yl}methyl]-2,6-dipropylphenoxy]-2-(4-chlorophenyl)acetic acid] |  |  |
| 468 nM |  |  | CCCCc1nc(C)n(-c2ncc(O)cn2)c(=O)c1Cc1cc(CCC)c(OC(C(=O)O)c2ccccc2)c(CCC)c1 (centres unmarked) [Example 27, 2-[4-[{4-butyl-1-(5-hydroxypyrimidin-2-yl)-2-methyl-6-oxo-1,6-dihydropyrimidin-5-yl}methyl]-2,6-dipropylphenoxy]-2-phe nylacetic acid] |  |  |
